Reference: the NIST ThermoML archive (doi:10.1021/je9010568)
Numbers after ± are expanded uncertainties.

Conditions: Liquid

CC(O)CO (stereo not given) [1,2-propanediol]
Conditions	specific volume [m3/kg]
273.15 K, 100 kPa, Vibrating tube method	0.0009519 ± 2.4e-07
274.15 K, 100 kPa, Vibrating tube method	0.0009525 ± 2.4e-07
275.15 K, 100 kPa, Vibrating tube method	0.0009532 ± 2.4e-07
276.15 K, 100 kPa, Vibrating tube method	0.0009538 ± 2.4e-07
277.15 K, 100 kPa, Vibrating tube method	0.0009544 ± 2.4e-07
278.15 K, 100 kPa, Vibrating tube method	0.0009551 ± 2.4e-07
279.15 K, 100 kPa, Vibrating tube method	0.0009557 ± 2.4e-07
280.15 K, 100 kPa, Vibrating tube method	0.0009563 ± 2.4e-07
281.15 K, 100 kPa, Vibrating tube method	0.000957 ± 2.4e-07
282.16 K, 100 kPa, Vibrating tube method	0.0009576 ± 2.4e-07
283.16 K, 100 kPa, Vibrating tube method	0.0009583 ± 2.4e-07
284.16 K, 100 kPa, Vibrating tube method	0.0009589 ± 2.4e-07
285.16 K, 100 kPa, Vibrating tube method	0.0009596 ± 2.4e-07
286.16 K, 100 kPa, Vibrating tube method	0.0009602 ± 2.4e-07
287.16 K, 100 kPa, Vibrating tube method	0.0009609 ± 2.4e-07
287.78 K, 298200 kPa, Bellows volumetry	0.0008796 ± 1.4e-06
287.98 K, 348900 kPa, Bellows volumetry	0.0008706 ± 1.8e-06
288.05 K, 100 kPa, Vibrating tube method	0.0009615 ± 2.4e-07
288.05 K, 49200 kPa, Bellows volumetry	0.0009434 ± 4.3e-07
288.1 K, 299700 kPa, Bellows volumetry	0.0008829 ± 1.3e-06
288.11 K, 148700 kPa, Bellows volumetry	0.0009148 ± 1.1e-06
288.12 K, 198400 kPa, Bellows volumetry	0.0009035 ± 1.4e-06
288.12 K, 248700 kPa, Bellows volumetry	0.0008932 ± 2.3e-06
288.14 K, 99900 kPa, Bellows volumetry	0.0009277 ± 8.3e-06
288.15 K, 99300 kPa, Bellows volumetry	0.000926 ± 3.8e-06
288.16 K, 100 kPa, Vibrating tube method	0.0009616 ± 2.4e-07
288.17 K, 49000 kPa, Bellows volumetry	0.0009425 ± 2.7e-07
288.17 K, 349200 kPa, Bellows volumetry	0.0008746 ± 1.3e-06
288.2 K, 249300 kPa, Bellows volumetry	0.0008891 ± 7.1e-07
288.21 K, 148200 kPa, Bellows volumetry	0.0009125 ± 4.4e-07
288.22 K, 99800 kPa, Bellows volumetry	0.0009279 ± 1.3e-06
288.24 K, 199500 kPa, Bellows volumetry	0.0009 ± 5.9e-07
288.28 K, 149900 kPa, Bellows volumetry	0.0009146 ± 1.6e-06
288.29 K, 250100 kPa, Bellows volumetry	0.0008927 ± 2e-06
288.31 K, 100 kPa, Vibrating tube method	0.0009617 ± 2.4e-07
288.31 K, 199600 kPa, Bellows volumetry	0.0009031 ± 2e-06
288.31 K, 299900 kPa, Bellows volumetry	0.0008834 ± 9.9e-07
288.32 K, 349100 kPa, Bellows volumetry	0.000875 ± 1.3e-06
288.34 K, 100 kPa, Vibrating tube method	0.0009617 ± 2.4e-07
288.38 K, 48800 kPa, Bellows volumetry	0.0009437 ± 3.6e-07
289.16 K, 100 kPa, Vibrating tube method	0.0009622 ± 2.4e-07
290.15 K, 100 kPa, Vibrating tube method	0.0009629 ± 2.4e-07
291.15 K, 100 kPa, Vibrating tube method	0.0009636 ± 2.4e-07
292.15 K, 100 kPa, Vibrating tube method	0.0009643 ± 2.4e-07
293.15 K, 100 kPa, Vibrating tube method	0.0009649 ± 2.4e-07
294.15 K, 100 kPa, Vibrating tube method	0.0009656 ± 2.4e-07
295.15 K, 100 kPa, Vibrating tube method	0.0009663 ± 2.4e-07
296.16 K, 100 kPa, Vibrating tube method	0.000967 ± 2.4e-07
297.16 K, 100 kPa, Vibrating tube method	0.0009677 ± 2.4e-07
298.16 K, 100 kPa, Vibrating tube method	0.0009684 ± 2.4e-07
299.16 K, 100 kPa, Vibrating tube method	0.0009691 ± 2.4e-07
300.16 K, 100 kPa, Vibrating tube method	0.0009698 ± 2.4e-07
301.16 K, 100 kPa, Vibrating tube method	0.0009705 ± 2.4e-07
302.16 K, 100 kPa, Vibrating tube method	0.0009712 ± 2.4e-07
303.16 K, 100 kPa, Vibrating tube method	0.0009719 ± 2.4e-07
304.15 K, 100 kPa, Vibrating tube method	0.0009726 ± 2.4e-07
305.15 K, 100 kPa, Vibrating tube method	0.0009733 ± 2.4e-07
306.15 K, 100 kPa, Vibrating tube method	0.000974 ± 2.4e-07
307.15 K, 100 kPa, Vibrating tube method	0.0009747 ± 2.4e-07
308.15 K, 100 kPa, Vibrating tube method	0.0009754 ± 2.4e-07
309.15 K, 100 kPa, Vibrating tube method	0.0009761 ± 2.4e-07
310.15 K, 100 kPa, Vibrating tube method	0.0009769 ± 2.4e-07
311.15 K, 100 kPa, Vibrating tube method	0.0009776 ± 2.4e-07
312.15 K, 100 kPa, Vibrating tube method	0.0009783 ± 2.4e-07
313.15 K, 100 kPa, Vibrating tube method	0.000979 ± 2.4e-07
